In patent publication US20120082626A1, “USE OF R-BAMBUTEROL AS INHALED MEDICAMENT AND COMBINATION THERAPIES FOR TREATMENT OF RESPIRATORY DISORDERS” (priority 2009, published 2012):
Marks after values point to notes of the source that are not given here.

Test system: histamine evoked asthma in conscious guinea-pigs
Assay: Histamine-evoked asthma in conscious guinea pigs after oral administration
Assay type: in vivo, guinea pigs (Dunkin-Hartley strain)
Conditions: for Latency: no collapse over 360 sec recorded as 360
Method: Test methods: Guinea pigs (Dunkin-Hartley strain, 200±30 g) were fasted overnight but given water ad libidum. The animals were restrained individually in a glass chamber and exposed to aerosol histamine generated by a nebulizer from a 0.2% aqueous solution of histamine under constant pressure at dose of 0.5 ml/min for a period of 15 sec. The animal was removed from the chamber, and its behavior was monitored. Assign of collapse and the latency time from exposure to collapse were recorded. Only the animals with latency time less than 120 sec, as an indication of sensitive to histamine, were chosen for later experiments. The animals chosen were allowed to recover completely by resting for 24 hours before experiments. R-bambuterol and racemic bambuterol hydrochloride were dissolved in saline and nublized in a nebulizer.
Comparison of the anti-asthma effects of R-bambuterol (R-BM) and bambuterol (RS-BM) administered by oral and by inhalation in conscious guinea pigs. Test methods: same as Example 1.
Study of dose-response: Same as Example 1, except the following: four hours before the exposure to aerosol histamine, animals were randomized into groups (n=8, equal male and female), and given R-bambuterol hydrochloride or racemic bambuterol hydrochloride in doses of 1.0, 2.0, 4.0 and 8.0 mg/kg, and vehicle control, orally via a stomach tube.

[1] = oral, at maximum effective dose (R-BM 4.0, RS-BM 8.0 mg/Kg)

SMILES: CN(C)C(=O)Oc1cc(OC(=O)N(C)C)cc([C@@H](O)CNC(C)(C)C)c1 [R-bambuterol]
- maximum effective dose required by oral (none of the histamine challenged animals collapsed) (oral): 4 mg/kg
- Latency (oral 1.0 mg/Kg): 179 ± 151 s
- Latency (oral 2.0 mg/Kg): 295 ± 121 s
- (Collapsed)/No. in group (oral 4.0 mg/Kg, four hours before aerosol histamine, n=8): 0/8**^▴▴
- Latency (oral 4.0 mg/Kg): 360 ± 0 s
- Latency (oral 8.0 mg/Kg): 360 ± 0 s
- Animal collapsed (%) [1]: 0%
- Animal collapsed (number/group) [1]: 0/8
- maximum effective dose required by oral (none of the histamine challenged animals collapsed) (oral, listed as R-BM): Oral (4.0) mg/Kg
